Test results reported in patent publication US4027005A, “Diagnostic agents” (New England Nuclear Corporation, priority 1974, dated 1977).
Read-outs that look alike come from different tables or passages of the source.

Assays:
[1] = cited from earlier work
[2] = Comparative one hour rat organ distribution and organ uptake contrast ratios; assay type: in vivo; details: i.v.; for Kidney/G.I. organ uptake contrast ratio / Kidney/liver organ uptake contrast ratio / Kidney/blood organ uptake contrast ratio: activity per gram; for Kidney/blood organ uptake contrast ratio: 60 min; for Blood, organ distribution / G.I., organ distribution / Kidney, organ distribution / Liver, organ distribution: decay corrected, average of at least two animals
Procedure: Each of the foregoing renal scanning agents is aseptically intravenously injected (0.25 ml containing about 3-5 mCi) into adult rats. One hour later the rats are sacrificed, and the blood collected, weighed and counted. The organs of interest, e.g. the kidney, the liver, and the gastrointestinal tract, are individually weighed and the radioactivity contained therein counted. The amount of radioactivity injected is determined by counting the radioactivity in the syringe before and after injection. The organ distribution values are reported as the percent of the activity injected which is observed in the organ, corrected for the radioactive decay of technetium. The organ uptake contrast ratios are determined by determining the relative activity contained per gram of the organs compared.

[3] = Acute toxicity in mice, intravenous; assay type: in vivo
[4] = Sub-acute toxicity in dogs; assay type: in vivo; details: 19 mg/kg per day for 14 days
[5] = Sub-acute toxicity in mice; assay type: in vivo; details: mice, 800, 400 and 80 mg/kg per day for 15 days
[6] = test system: infarcted myocardial tissue; assay: Infarction tests: accumulation in infarcted myocardial tissue; assay type: in vivo, rat; details: for ratio B: activity per gram of infarcted tissue to activity per gram in the blood: 60 min
Procedure: In each case a myocardial infarct is produced in adult rats by surgery. In Example 9, doses of about 3-5 mCi each of the glucoheptonate and tetracycline agents respectively are injected three hours after infarct was induced. The animals are sacrificed one hour after injection and the heart removed. The infarcted tissue, which is visibly distinguishable from normal myocardial tissue, was excised, weighed and counted. The normal myocardial tissue was also weighed and its activity counted and the results are reported as the ratio of the activity per gram of the infarcted tissue to the activity per gram of the normal tissue (A), and the ratio of the activity per gram of the infarcted tissue to activity per gram in the blood (B). Example 10 reports similar results, the difference being that in that example the radionuclides were injected into the live rats eighteen hours after the infarct was induced, rather than three hours.

[7] = Distribution data in rats of the glucoheptonate agent; details: within one hour post injection
[8] = Urinary excretion in humans; details: within the first hour after injection, 60 min
[9] = Example 9: rat, injected three hours after infarct, sacrificed one hour after injection
[10] = Example 10: rat, injected eighteen hours after infarct

Compound	Kidney/G.I. organ uptake contrast ratio [2]	Kidney/liver organ uptake contrast ratio [2]	Kidney/blood organ uptake contrast ratio [2]	Blood, organ distribution [2]	G.I., organ distribution [2]	Kidney, organ distribution [2]	Liver, organ distribution [2]	other results
O=C(O)CNC(=O)c1ccccc1[131I] [131 I-iodohippuran]	–	–	–	–	–	–	–	accumulation, retention or elimination of prior agents (in words) ([1]; prior art): predominantly eliminated through active secretion by tubular cells
O=C(O)Cn1cc([131I])c(=O)c([131I])c1.OCCNCCO [131 I-iodopyracet]	–	–	–	–	–	–	–	accumulation, retention or elimination of prior agents (in words) ([1]; in vivo): simultaneous accumulation in surrounding tissue, especially the liver
O=C(O)[C@H](O)[C@@H](O)[C@H](O[C@@H]1O[C@H](CO)[C@H](O)[C@H](O)[C@H]1O)[C@H](O)CO [Example 2]	57	102	82	1.8% of the activity inject	6.2% of the activity inject	23% of the activity inject	1.3% of the activity inject	–
O=C(O)[C@H](O)[C@@H](O)[C@H](O)[C@H](O)CO [Example 5]	55	50	40	2.3% of the activity inject	4.8% of the activity inject	16% of the activity inject	1.4% of the activity inject	–
stannous glucoheptonate	–	–	–	–	–	–	–	acute toxicity level (LD50) [3]: about 1500 mg/kg; sub-acute toxicity [4]: no untoward effects; sub-acute toxicity [5]: no ill effects
technetium-99m-stannous-DTPA [Example 7]	65	77	32	1.0% of the activity inject	1.1% of the activity inject	5.0% of the activity inject	0.3% of the activity inject	Kidney/blood organ uptake contrast ratio ([2]; listed as DTPA): 22
technetium-99m-stannous-glucoheptonate [Example 1]	44	115	105	1.1% of the activity inject	5.0% of the activity inject	18% of the activity inject	0.7% of the activity inject	ratio A: activity per gram of infarcted tissue to activity per gram of normal tissue [6, 9]: 10.3; ratio B: activity per gram of infarcted tissue to activity per gram in the blood [6, 9]: 4.5; ratio A: activity per gram of infarcted tissue to activity per gram of normal tissue [6, 10]: 6.7; ratio B: activity per gram of infarcted tissue to activity per gram in the blood [6, 10]: 3.2; preferential accumulation in infarcted tissue (in words) ([6]; Examples 9 and 10): more effective in preferentially accumulating in infarcted, rather than normal, tissue than the tetracycline infarct agent; total blood activity [7]: less than 2%; injected dose excreted in the urine [8]: about 25%
technetium-99m-stannous-tetracycline [Tetracycline complex, reference compound]	–	–	–	–	–	–	–	ratio A: activity per gram of infarcted tissue to activity per gram of normal tissue [6, 9]: 5.9; ratio A: activity per gram of infarcted tissue to activity per gram of normal tissue [6, 10]: 3.7
